Here are results for four substances from publication PMC2994776 (BMC Biochemistry, 2010).

Test [1] has as its system B9-23 - reactive T-cell clones. Particulars: type 1 diabetes; cited from earlier work.
For another test, the target named is T1, DnaK (Escherichia coli, UniProt P0A6Y8).
T1 construct: made in house
Put plainly: Fluid phase competition binding assay with acrylodan-labeled NR peptide (a-NR). More on the design: species or system bacterial. Particulars: read-out: Apparent dissociation equilibrium constant (K'd). As to the method:
Determination of dissociation equilibrium constants
Peptide NR was labeled with the environmentally sensitive fluorophore acrylodan as described. […] After reaching equilibrium (~1.5 h), emission spectra were recorded from 400 nm to 600 nm (bandpass 4 nm) with a Perkin-Elmer spectrofluorimeter LS50B equipped with a stirrer and a thermostatically controlled cuvette holder. The excitation wavelength was set at 370 nm (bandpass 4 nm). Measurements were performed in a volume of 800 μl in 25 mM Hepes/KOH, 100 mM KCl, 10 mM MgCl2, pH 7.4 containing 1 mM DTT and 1 mM ADP-Pi at 25°C.
(1) ΔF=ΔFmaxxP/(P+Kdx(1+L/K'd))

Ends that are not written are not given here.

T1 sequence (P0A6Y8 whole entry): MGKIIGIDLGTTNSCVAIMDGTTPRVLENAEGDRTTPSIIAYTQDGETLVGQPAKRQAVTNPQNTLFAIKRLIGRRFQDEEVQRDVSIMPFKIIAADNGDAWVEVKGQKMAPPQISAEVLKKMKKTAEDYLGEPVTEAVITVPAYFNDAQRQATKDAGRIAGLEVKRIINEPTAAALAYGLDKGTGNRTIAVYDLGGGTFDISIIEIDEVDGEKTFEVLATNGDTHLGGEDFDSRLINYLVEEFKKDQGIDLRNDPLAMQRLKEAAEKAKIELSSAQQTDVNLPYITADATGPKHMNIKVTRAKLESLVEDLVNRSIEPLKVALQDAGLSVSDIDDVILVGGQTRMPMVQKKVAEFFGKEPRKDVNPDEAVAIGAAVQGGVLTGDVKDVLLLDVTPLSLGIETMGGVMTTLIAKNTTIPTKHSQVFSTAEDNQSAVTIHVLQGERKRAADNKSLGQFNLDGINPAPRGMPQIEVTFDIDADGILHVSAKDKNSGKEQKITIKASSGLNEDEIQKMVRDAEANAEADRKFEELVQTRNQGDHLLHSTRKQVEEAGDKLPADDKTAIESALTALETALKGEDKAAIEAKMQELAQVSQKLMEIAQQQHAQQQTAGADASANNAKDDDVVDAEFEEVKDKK

Consider “B9-23: insulin peptide identified as an immunodominant epitope of autoimmune T-cell reactivity in type 1 diabetes (SHLVEALYLVCGERG; ends and bridges not checked; UniProt P01308 33-47, looked up, fragment) [Peptide B9-23]”, for which the “immunodominance in autoimmune T-cell reactivity (in words)” value in test [1] is reported as “immunodominant epitope of autoimmune T-cell reactivity in type 1 diabetes”.
For the substance LVEALYLVCGERG [Peptide B11-23], the Kd on DnaK amounted to 2200 ± 400 nM.
The same measure, in the same setting: for “SHAMAPVLYLQDK [Control peptide (sigma32 aa192-204)]” the value was 500 ± 100 nM.
Still for that read-out and setting: in the case of VCGERGFFYTPKT [Peptide B18-30] it was 51900 ± 12800 nM.
